According to US10647747B2, “Cyclosporin derivatives and uses thereof” (S&T Global Inc., priority 2010, dated 2020):
*1 amine or outer side, *2 acyl side, *3 side chain or, on linkers, in order; H or OH if unused. Where a SMILES comes first, the peptide text is derived from it. [ ]: non-standard residue; d: D form. X3 = CC=CCC(C)C(O)C(C(=O)[*:2])N(C)[*:1]; X5 = CSCOC(C)(C)CC(C(=O)[*:2])N(C)[*:1]; X4 = CCN(CC)CCSC(C(=O)[*:2])N(C)[*:1]; NMeL = CN[CH](CC(C)C)C(=O)O; NMeV = CN[CH](C(=O)O)C(C)C; Abu = CC[CH](N)C(=O)O

Test system: rat neuronal mitochondria
Test: Mitochondrial swelling assay (inhibition of mitochondrial permeability transition, MPT)
Type: biochemical
Conditions: compound 100 nM added 5 minutes before Ca2+; swelling induced by 100 micromolar calcium chloride; absorbance 620nm; control 100
Method: The effect of cyclosporine analogs on mitochondrial permeability transition (MPT) was determined by a modified mitochondrial swelling assay measured as an influx of Ca^2+, published by J. Blattner et al., 2001, Analytical Biochem, 295, 220-226. Briefly, rat neuronal mitochondria in an ice-cold sucrose buffer were obtained after rat whole-body perfusion and a series of centrifugation. The total protein concentration in each sample batch was determined for standardization between assays. The mitochondrial swelling was induced by 100 micromolar of Calcium Chloride. Each compound (100 nM) was added to mitochondria 5 minutes before the addition of Ca^2+. The value of absorbance at the certain wavelength (620nm) reflected the degree of mitochondrial swelling. The percentage of the swelling was calculated by comparing the absorbance in the present or absent compound of the interests.

CC=CCC(C)C(O)C1C(=O)NC(CC)C(=O)N(C)C(SCCN(CC)CC)C(=O)N(C)C(CC(C)(C)OCSC)C(=O)NC(C(C)C)C(=O)N(C)C(CC(C)C)C(=O)NC(C)C(=O)NC(C)C(=O)N(C)C(CC(C)C)C(=O)N(C)C(CC(C)C)C(=O)N(C)C(C(C)C)C(=O)N1C (stereo not shown) (cyclo([X3][Abu][X4][X5]V[NMeL]AA[NMeL][NMeL][NMeV]); configuration not given here)
Mitochondrial Swelling Relative %: 52.4%
